For assay [1], the system named is Caco-2. In words: Cytotoxicity against human Caco2 cells up to 40 uM after 24 hrs by MTT assay. The class given is functional, cell-based.
In assay [2] the test system is DNA. Briefly: Binding affinity to calf thymus DNA assessed as melting temperature at 10 uM by UV-Vis spectrophotometer analysis. The class given is nucleic-acid assay. The following applies: Bos taurus.
For assay [3], the system named is DNA. Briefly: Displacement of ethidium bromide from calf thymus DNA assessed as fluorescence quenching by fluorometric assay. The class given is nucleic-acid assay. The note with it: Bos taurus.
Assay [4] has as its system Caco-2. Briefly: Cytotoxicity against human Caco2 cells after 72 hrs by MTT assay. The class given is functional, cell-based. The note with it: for IC50: Caco-2, 72 h.
Assay [5] has as its target DNA topoisomerase 2-alpha (Homo sapiens) (UniProt P11388). In words: Inhibition of topoisomerase 2 (unknown origin) relaxation of supercoiled pBR322 at 50 to 100 uM by agarose gel electrophoresis.
The next assay relates to Escherichia coli. Briefly: Binding affinity to Escherichia coli supercoiled pBR322 assessed as change in morphology of plasmid to more relaxed conformation at 50 to 100 uM by agarose gel electrophoresis.
Assay [6] deals with T1, DNA topoisomerase 1 (Homo sapiens) (UniProt P11387).
T1 sequence (whole entry): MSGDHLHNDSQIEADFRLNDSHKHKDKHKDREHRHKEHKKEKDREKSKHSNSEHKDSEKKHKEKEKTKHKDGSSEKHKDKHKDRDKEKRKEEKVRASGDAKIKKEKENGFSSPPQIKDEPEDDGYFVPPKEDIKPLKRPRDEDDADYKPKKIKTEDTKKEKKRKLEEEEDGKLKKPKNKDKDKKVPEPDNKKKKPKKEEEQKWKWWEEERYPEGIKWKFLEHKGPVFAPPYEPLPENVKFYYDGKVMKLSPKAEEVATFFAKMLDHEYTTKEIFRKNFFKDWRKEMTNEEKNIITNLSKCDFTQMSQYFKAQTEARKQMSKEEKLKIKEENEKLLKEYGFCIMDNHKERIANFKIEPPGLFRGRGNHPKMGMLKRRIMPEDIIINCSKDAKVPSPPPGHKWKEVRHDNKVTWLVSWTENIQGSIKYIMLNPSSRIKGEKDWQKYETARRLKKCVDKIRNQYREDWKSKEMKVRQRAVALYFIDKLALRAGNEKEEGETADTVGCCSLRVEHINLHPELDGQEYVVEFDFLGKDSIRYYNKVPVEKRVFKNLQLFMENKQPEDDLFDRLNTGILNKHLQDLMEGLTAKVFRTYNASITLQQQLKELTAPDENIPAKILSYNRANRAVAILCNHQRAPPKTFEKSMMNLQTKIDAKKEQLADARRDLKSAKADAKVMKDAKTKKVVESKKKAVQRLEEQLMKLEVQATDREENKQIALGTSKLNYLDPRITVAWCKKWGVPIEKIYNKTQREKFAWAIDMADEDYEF
In words: Inhibition of topoisomerase 1 (unknown origin) relaxation of supercoiled pBR322 at 50 to 100 uM by agarose gel electrophoresis.

Calls of active or inactive are those of the source. The calls are words filed in the database; no cut-off is given here.

Sequence of DNA topoisomerase 2-alpha (Homo sapiens) (P11388 whole entry): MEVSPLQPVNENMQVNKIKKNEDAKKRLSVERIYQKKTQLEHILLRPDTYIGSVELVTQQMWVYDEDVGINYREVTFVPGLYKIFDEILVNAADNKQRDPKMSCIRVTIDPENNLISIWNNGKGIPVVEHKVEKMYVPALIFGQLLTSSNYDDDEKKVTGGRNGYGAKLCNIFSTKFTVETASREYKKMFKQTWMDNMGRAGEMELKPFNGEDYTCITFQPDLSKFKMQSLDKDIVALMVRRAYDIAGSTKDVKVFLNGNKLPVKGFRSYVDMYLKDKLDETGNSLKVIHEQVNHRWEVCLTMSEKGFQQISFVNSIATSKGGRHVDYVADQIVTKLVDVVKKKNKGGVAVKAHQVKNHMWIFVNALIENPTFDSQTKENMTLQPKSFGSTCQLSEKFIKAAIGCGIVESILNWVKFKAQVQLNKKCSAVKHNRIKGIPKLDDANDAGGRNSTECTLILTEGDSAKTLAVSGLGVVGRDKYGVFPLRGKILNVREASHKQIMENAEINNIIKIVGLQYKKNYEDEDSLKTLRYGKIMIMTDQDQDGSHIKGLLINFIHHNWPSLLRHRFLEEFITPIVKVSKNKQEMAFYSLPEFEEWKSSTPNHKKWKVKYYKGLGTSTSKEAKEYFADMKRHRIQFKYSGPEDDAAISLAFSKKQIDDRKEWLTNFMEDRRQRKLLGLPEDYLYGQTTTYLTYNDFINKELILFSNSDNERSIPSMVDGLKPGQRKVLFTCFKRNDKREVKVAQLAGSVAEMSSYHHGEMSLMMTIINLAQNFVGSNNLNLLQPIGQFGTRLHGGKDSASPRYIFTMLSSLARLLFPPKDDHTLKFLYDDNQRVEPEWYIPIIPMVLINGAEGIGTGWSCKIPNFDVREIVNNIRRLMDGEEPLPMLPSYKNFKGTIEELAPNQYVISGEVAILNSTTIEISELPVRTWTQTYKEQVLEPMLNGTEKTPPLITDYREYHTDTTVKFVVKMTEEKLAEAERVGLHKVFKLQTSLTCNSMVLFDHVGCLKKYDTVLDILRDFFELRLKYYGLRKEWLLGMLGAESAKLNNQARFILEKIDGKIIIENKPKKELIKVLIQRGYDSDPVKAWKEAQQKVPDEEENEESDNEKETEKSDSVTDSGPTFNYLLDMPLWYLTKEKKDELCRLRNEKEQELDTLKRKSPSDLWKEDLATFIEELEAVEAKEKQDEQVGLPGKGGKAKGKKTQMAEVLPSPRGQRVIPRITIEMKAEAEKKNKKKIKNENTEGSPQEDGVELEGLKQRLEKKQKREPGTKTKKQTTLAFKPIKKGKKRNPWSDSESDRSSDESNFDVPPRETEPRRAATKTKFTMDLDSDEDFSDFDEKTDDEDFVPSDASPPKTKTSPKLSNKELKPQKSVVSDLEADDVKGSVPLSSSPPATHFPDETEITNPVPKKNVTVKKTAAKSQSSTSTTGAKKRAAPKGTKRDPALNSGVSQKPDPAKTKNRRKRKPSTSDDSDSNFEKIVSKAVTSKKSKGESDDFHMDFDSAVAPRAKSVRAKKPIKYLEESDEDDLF

In the case of `O=C1c2cccc(O)c2C2=NC(CCO)Oc3cccc1c32` (centres undefined), the outcome with Caco-2 [1] was inactive. Further, in the assay with DNA [2], the Tm turned out to be 57.2 °C. The C50 result with DNA [3] is “inactive”.

`COc1cccc2c1C(=O)c1c(O)c3c(c(O)c1C2=O)C[C@@](O)(C(=O)CO)C[C@@H]3O[C@H]1C[C@H](N)[C@H](O)[C@H](C)O1` [DOXORUBICIN]: the outcome with Caco-2 [1] was inactive. For the same compound, in the assay with DNA [2], the Tm worked out at 92 °C. Also, in the assay with Caco-2 [4], half-maximal inhibition (IC50) was put at 5 µM.

With `NCCC1CCCCN1C1N=C2c3c(O)cccc3C(=O)c3cccc(c32)O1` (centres undefined), in the assay with Caco-2 [1], the result was inactive. The Tm in the assay on DNA [2] was found to be 79.9 °C. Also, the inhibition entry in assay [5] and in assay [6] was “inactive” each time. In the assay on Caco-2 [4], this compound showed an IC50 of 16 µM. Moreover, in the assay on Escherichia coli, the outcome was Active. Further, in the assay on DNA [3], the C50 stood at 6 µM.

In the case of `O=C1c2cccc(O)c2C2=NC(CO)Oc3cccc1c32` (centres undefined), in the assay on Caco-2 [1], the result was inactive. Further, in the assay with DNA [2], the Tm came to 64.3 °C. For the same compound, the C50 result in the assay on DNA [3] was “inactive”.

As for `NCCC1CN(C2N=C3c4c(O)cccc4C(=O)c4cccc(c43)O2)CCO1` (centres undefined), the outcome with Caco-2 [1] and in the assay with Caco-2 [4] was inactive. The Tm in the assay with DNA [2] worked out at 66.2 °C. Further, in the assay on DNA [3], the C50 result was “inactive”.

With `O=C1c2cccc(O)c2C2=NC(CCCCO)Oc3cccc1c32` (centres undefined), the result with Caco-2 [1] was inactive. Further, the Tm in the assay on DNA [2] came out at 62.2 °C. The C50 result in the assay with DNA [3] was “inactive”.

For the compound `O=C1c2cccc(O)c2C2=NC(CCCO)Oc3cccc1c32` (centres undefined), the outcome with Caco-2 [1] was inactive. Further, in the assay with DNA [2], the Tm worked out at 58.4 °C. Moreover, in the assay with DNA [3], the C50 result is “inactive”.

Take `O=C1c2cccc(O)c2C2=NC(CCCCCO)Oc3cccc1c32` (centres undefined): the result in the assay with Caco-2 [1] was inactive. The Tm with DNA [2] amounted to 59.2 °C. In addition, the C50 result with DNA [3] is “inactive”.

(Values after ChEMBL document CHEMBL2434852, “Synthesis, cytotoxicity and DNA binding of oxoazabenzo[de]anthracenes derivatives in colon cancer Caco-2 cells” (Eur J Med Chem, 2013).)
